How the values were obtained:
[1] = tested on: LS180 cells; test: Analysis of change in cell cycle (propidium iodide, flow cytometry); type: cell-based, human; settings: LS180, 50 nM, FIG. 10A; for change in cell cycle: 72 hours; for change in cell cycle, Sub G1 stage (cell death): long-term treatment (14 days)
Method: In order to observe a cell cycle, treated cells and untreated cells were each washed with DNase-free PBS twice, and were then immobilized with 70% ethanol (frozen). The immobilized cells were treated with PBS containing 10 µg/mL RNaseA and 50 µg/mL propidium iodide, while they were left in a dark place at room temperature for 30 minutes. Using an FL-2H filter of FACS Calibur flowcytometer (Becton Dickinson, USA), fluorescence intensity was measured. The rate of cell cycle was determined by analyzing the obtained data using Cell Quest software (Becton Dickinson, USA). Regarding the treatment of cells, LS180 was treated with 50 nM KR12 or KR13 (dissolved in 0.125% DMSO) for 72 hours, and as a long-term treatment experiment, a culture experiment was carried out for 14 days. As a control, the cells were cultured in an MEM medium containing 10% FBS and 0.125% DMSO for 14 days.

[2] = tested on: LS180 cells; test: Confirmation of cell death (apoptosis) by fragmentation of DNA; type: cell-based, human; settings: LS180, 50 nM, FIG. 10B
Method: Regarding the treatment of cells, the LS180 cells were cultured at a cell density of 1.0×10^5 cells/30 mm dish in a culture media of MEM (gibco)+10% FBS (gibco)+100 units/ml Penicillin+100 μg/ml Streptmycin (gibco). Thereafter, the cultured cells were treated with 50 nM KR12 or KR13 (dissolved in 0.125% DMSO) for 72 hours, and also, as a long-term experiment, the cells were treated with KR 12 or KR13 for […]. Thereafter, the cells of different groups were treated with a control MEM medium containing 10% FBS and 0.125% DMSO for 11 days. At the same time, as a control group, the LS180 cells were treated with 10% FBS and 0.125% DMSO for 14 days. Thereafter, the cells of the different groups were treated with trypsin, and were then recovered. The recovered cells were stirred in 50 μl of a PBS solution, and 3 μl of 1.5% Triton X (in water) and 3 μl of an RNase (1 mg/ml in water) were then added to the reaction solution. The mixed solution was treated at 37° C. for 30 minutes. Subsequently, 3 μl of proteinase K (1 mg/ml) was added to the reaction solution, and the obtained mixture was then treated at 37° C. for 30 minutes. Subsequently, 12 μl of 6× loading buffer was further added to the reaction solution, and the obtained mixture was treated at 65° C. for 10 minutes. Immediately after the treatment, 20 μl of the reaction solution was electrophoresed on 2% agarose gel in TBE at 100 V, and the gel was then stained with ethidium.

[3] = tested on: γH2AX, p53, PARP in LS180 cells; test: Western analysis of markers of DNA damage and cell death (apoptosis); type: cell-based, human; settings: LS180, 50 nM, 14 days, FIG. 10C
Method: LS180 cells, which had been subjected to a long-term treatment experiment and had been treated with 50 nM KR12 or KR13 (dissolved in 0.125% DMSO) for 14 days, were dissolved in a 1×SDS-sample buffer. The obtained solution was treated at 100° C. for 5 minutes. The protein amount was estimated using Bradford reagent (Bio-Rad, CA), and was then electrophoresed by 10% SDS-PAGE. After that, the protein was transferred onto polyvinylidene difluoride membranes (Millipore, MA), and using 5% dry milk in Tris-buffered saline (TBS) plus 0.1% Tween 20 as a blocking agent, anti-γH2AX (2F3, BioLegend, CA), anti-p53 (DO-1, Santa Cruz Biotechnology, CA), anti-PARP (Cell Signaling Technologies, MA), or anti-actin antibody (20-33, Sigma, MO) was added to lanes, and the protein was further treated with HRP-conjugated anti-mouse IgG or anti-rabbit IgG (Cell Signaling Technologies, MA). Before the treatment with a secondary antibody, the primary antibody was washed, as appropriate. Thereafter, the protein was washed with TBS plus 0.1% Tween 20, and it was then identified by […] chemiluminescence (ECL) (Amersham Biosciences, NJ).

[4] = tested on: mutant codon 12 KRAS gene and wild-type KRAS gene in LS180; test: Colony sequence of KRAS transcripts, LS180; type: cell-based, human; settings: for MUT (number of mutant gene colonies) / WT (number of wild-type gene colonies): LS180, 50 nM, 48 hours, colony sequence, Table 2; for number of mutant gene colonies relative to wild-type gene colonies: LS180, colony sequence method
Method: The cells (6.5×10^4) were seeded and were then cultured overnight. Thereafter, the cultured cells were treated with 50 nM KR12 or KR13, and were then cultured for 48 hours. After that, the cultured cells were harvested, and RNA was then extracted. For the extraction, RT-PCT was carried out using RNeasy mini kit (Qiagen, CA). Subsequently, using the extracted RNA as a template, cDNA for reverse transcription was prepared by employing Super Script VILO cDNA Synthesis Kit (Invitrogen, CA). Using the prepared cDNA as a template, PCR was carried out using the primers shown in SEQ ID NO: 7 and SEQ ID NO: 8. After a reaction had been carried out at 94° C. for 5 minutes, a reaction cycle of 94° C.-30 seconds, 55° C.-30 seconds, and 72° C.-30 seconds was repeated 20 times. Finally, an elongation reaction was carried out at 72° C. for 7 minutes. The PCR product was cloned using pGEM-T Easy vector (Promega, WI). Thereafter, Escherichia coli DH5α competent cells (Toyobo, Japan) were transformed with the clone, and the obtained transformant was then cultured at 37° C. overnight in an LB plate containing 50 μg/mL ampicillin, 1 mg of X-gal and 1 mg of isopropyl-β-thiogalactopyranoside. White colonies were identified by colony direct PCR. Regarding the PCR reaction cycle, after a reaction had been carried out at 94° C. for 5 minutes, a reaction cycle of 94° C.-30 seconds, 55° C.-30 seconds, and 72° C.-30 seconds was repeated 30 times. Finally, an elongation reaction was carried out at 72° C. for 7 minutes. The following primer set, namely, an M13-F1 primer and an M13-R1 primer were used for amplification. The sequence of the amplified DNA was decoded using a sequencing primer KRAS-2R, and the KRAS gene mutation site in each colony was then identified.
KR12, which was considered to specifically alkylate the KRAS mutant codon 12 gene, was administered to a heterozygous colon cancer cell line LS180 having both a mutant codon 12 KRAS gene and a wild-type KRAS gene. Forty-eight hours later, RNA was extracted, and the KRAS gene was then quantitatively amplified. The amplified gene was cloned into a plasmid, using a TA cloning kit, and the obtained plasmid was then introduced into competent cells. Thereafter, by performing blue-white selection using an LB/amp/IPTG/X-Gal plate, white colonies having inserts were picked up, and then, the presence or absence of a colon 12 mutation in each colony was examined by direct sequencing or by a colony PCR method.

[5] = tested on: mutant KRAS genes and wild-type KRAS genes in PANC-1; test: Colony analysis of KRAS transcripts, PANC-1; type: cell-based; settings: for MUT (number of mutant gene colonies) / WT (number of wild-type gene colonies): PANC-1, Table 4

Structure (SMILES) | change in cell cycle [1] | change in cell cycle, Sub G1 stage (cell death) [1] | DNA fragmentation ([2]; 72-hour-treated groups) | DNA fragmentation ([2]; long-term treatment) | DNA damage marker γH2AX [3] | cleavage of the PARP protein [3] | induction of p53 [3] | MUT (number of mutant gene colonies) [4] | WT (number of wild-type gene colonies) [4] | number of mutant gene colonies relative to wild-type gene colonies [4] | MUT (number of mutant gene colonies) [5] | WT (number of wild-type gene colonies) [5] | expression levels of the mutant KRAS genes relative to wild-type KRAS genes ([5]; PANC-1, control group mutant 3-fold higher than wild-type) | induction of DNA damage and cell death [3]
CC(=O)Nc1cn(C)c(C(=O)Nc2cc(C(=O)NCCC(=O)Nc3cn(C)c(C(=O)Nc4cn(C)c(C(=O)Nc5cc(C(=O)Nc6cn(C)c(C(=O)NCCCC(=O)Nc7cc(C(=O)Nc8cn(C)c(C(=O)NCCC(=O)Nc9cc(C(=O)Nc%10cc(C(=O)Nc%11ccc%12[nH]c(C(=O)N%13CC(CCl)c%14c%13cc(O)c%13ccccc%14%13)cc%12c%11)n(C)c%10)n(C)c9)n8)n(C)c7)n6)n(C)c5)n4)n3)n(C)c2)n1 (centres unmarked) [KR12] | the LS180 cells at the S stage were increased | the cells at the Sub G1 stage were significantly increased | DNA fragmentation was not observed | DNA fragmentation induced by cell death was observed | induced | the cleavage of the PARP protein was observed | induction of p53 was also observed | 14 | 29 | the number of mutant gene colonies was a half of the number of wild-type gene colonies | 24 | 21 | decreased to the same levels of the wild-type KRAS genes | –
CC(=O)Nc1cn(C)c(C(=O)Nc2cn(C)c(C(=O)Nc3cc(C(=O)Nc4cn(C)c(C(=O)NCCC(=O)Nc5cc(C(=O)Nc6cn(C)c(C(=O)NCCCC(=O)Nc7cc(C(=O)Nc8cn(C)c(C(=O)Nc9cc(C(=O)NCCC(=O)Nc%10cc(C(=O)Nc%11ccc%12[nH]c(C(=O)N%13CC(CCl)c%14c%13cc(O)c%13ccccc%14%13)cc%12c%11)n(C)c%10)n(C)c9)n8)n(C)c7)n6)n(C)c5)n4)n(C)c3)n2)n1 (centres unmarked) [KR13] | the cells at the S phase and the G2M phase were slightly increased | an increase in the cell at the Sub G1 phase was not significant | DNA fragmentation was not observed | DNA fragmentation was not observed | – | – | – | 22 | 15 | the number of mutant genes was rather increased | 18 | 8 | – | significant induction of DNA damage and cell death was not observed

— patent publication US11185593B2, “Alkylating agent for alkylating target with driver oncogene mutation” (Chiba Prefecture, priority 2013, dated 2021)
